The results in this text go back to patent publication US20220259235A1, “EGFR Inhibitor, Composition, and Preparation Method Therefor” (BETTA PHARMACEUTICALS CO., LTD, priority 2019, published 2022).

One series addresses Ba/F3-L858R/T790M/C797S (Homo sapiens, UniProt P00533, T790M/C797S/L858R, cells depend on it). As to the kind of experiment: Ba/F3-L858R/T790M/C797S cell proliferation assay (CellTiter Glo, 72 h). The following applies: CTG, numeric values, read-out: BaF3 L858R/T790M/C797S IC50. The format is cell-based. Summed up:
(§1)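 Cells seeded at 2000/well and exposed 72 h to compound at 1000 to 0.2 nM (0.1% DMSO). Viability read by CellTiter-Glo luminescence; IC50 from four-parameter nonlinear regression of signal vs. log concentration.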
On the technique in general: Cellular ATP, detected with luciferase, serves as a proxy for viable cell number.

In the next series the target is Ba/F3-Δ19del/T790M/C797S (Homo sapiens, UniProt P00533, T790M/C797S, cells depend on it, form not given). As to the kind of experiment: Ba/F3-Δ19del/T790M/C797S cell proliferation assay (CellTiter Glo, 72 h). It is filed as cell-based. Conditions: CTG, numeric values, read-out: BaF3 Δ19del/T790M/C797S IC50. Summed up:
as §1

Series [1] deals with A431 EGFR wild-type cell line. As to the kind of experiment: A431 EGFR wild-type cell proliferation assay (CellTiter Glo, 72 h). The format is cell-based. The following applies: Homo sapiens, A-431, CTG, read-out: A431 EGFR WT IC50. Here is the method:
Cell line: Ba/F3 cells with stable overexpression of Δ19del/T790M/C797S or L858R/T790M/C797S mutant genes, named Ba/F3-Δ19del/T790M/C797S and Ba/F3-L858R/T790M/C797S, and A431 EGFR wild-type cell line.
RPMI 1640 and 10% FBS and 1% PS; _EM, 10% PBS and 1% PS
a) Dilute the test compound (20 mM stock solution) to 10 mM with 100% DMSO as the starting concentration, and then serially dilute 3 times with a “9+0” concentration in 96-well dilution plate (Cat #P-05525, Labcyte);
b) Dilute compound solution thereof to 1:100 in medium to prepare 10-fold working solution;
a) Centrifuge the growth cells in logarithmic phase at 1000 rpm for 5 minutes, resuspend the cells in culture medium, and then count the cells;
b) Inoculate the cells into a 96-well cell culture plate with a density of 2000 cells/well;
a) The compound prepared in Step 2 was added to a cell plate with 15 μL per well at final concentrations of 1000, 333, 111.1, 37, 12.3, 4.1, 1.4, 0.5, 0.2, and 0 nM. The final concentration of DMSO was 0.1%. The blank control well is with medium (0.1% DMSO).
b) Incubate cells in an incubatorother 72 hours;
a) Take out the 96-well cell culture plate and add 50 μl CTG reagent (CellTiter Glo kit, promega, Cat #G7573);
b) Shake the plate for 2 minutes and let cool at room temperature for 10 minutes,
c) Read luminous signal value with Perkin Elmer reader.
(§2) Analysis of Experimental Data
The data were analyzed by GraphPad Prism 6.0 software to obtain the fitting curve of compound activity.
Fining compound IC50 from nonlinear regression equation:
Y=Min+(Max−Min)/(1+10^((LogIC50−X)*slope));
X: Logarithm of compound concentration; Y: luminous signal
As illustrated in examples, IC50 value is within the following range for the compound of the present invention: “A” represents “IC50≤50 nM”; “B” represents “50 nM<IC50<100 nM”.

Series [2] in a line: Liver microsomal clearance test, monkey. It is filed as in vitro ADME. The following applies: Monkey liver microsomes, 0.5 mg/mL, NADPH. How it is done:
(§3) Test 3 Liver Microsomal Clearance Test
(§4) 1. Prepare 0.5 mg/mL liver microsome diluent containing K-butter and MgCl2:
(§5) 2.1 Take 356 μL of the liver microsome diluent prepared above and add it to the preset wells of the incubation plate, the number of multiple wells n=1, mark it as the incubation plate.
(§6) 2.2 Take 4 μL of the positive control compound Verapamil (50 μM) and the working solution of the test compound (200 μM) into the above incubation plate containing 356 μL of liver microsome diluent, and mix well (The dilution solvent from the stock solution to the working solution is a mixed solvent of acetonitrile: methanol: water=1:1:2, and the final concentration of DMSO is ≤0.5%),
(§7) 2.3 Place the incubation plate in a 37° C. thermostatic oscillator (at shaking speed of 100 rpm) for pre-incubation with 10 min.
(§8) 2.4 Add 40 μL of 10 mM NADPH (add 40 μL of K-buffer to the wells without NADPH) to each reaction well to start the reaction and start timing.
(§9) 3. Sample collection and treatment:
(§10) 3.1 After adding NADPH to start the reaction, immediately take out 50 μL of the sample and add it to the precipitation plate pre-added with 400 μL of stop solution, and shake on an oscillator at 600 rpm for 5 min at room temperature as a 0 min sample.
(§11) 3.2 At the predetermined time points of 5 min, 15 min and 45 min, take out 50 μL of sample from the incubation plate and add it to the precipitation plate. The subsequent steps were the same as the treatment of 0 min sample. 3.3 After balancing, centrifuge above precipitation plate at 3200 rpm for 10 min at 4° C.
(§12) 3.4 Take 50 μL of the supernatant after centrifugation and add it to pre-added 20% acetonitrile water at appropriate proportion, shake on an oscillator at 600 rpm for 2 min at room temperature, mix well, and put it into the LC-MS/MS sampler for sample injection.
as §2
1. […]
A general note: Liver microsomes are vesicles of endoplasmic reticulum, rich in cytochrome P450 enzymes.

Series [3] is described as follows: Liver microsomal clearance test, rat. The format is in vitro ADME. The following applies: Rat liver microsomes, 0.5 mg/mL, NADPH. How it is done:
as §3, §4, §5, §6, §7, §8, §9, §10, §11, §12, §2
1. […]

A short description of series [4]: Liver microsomal clearance test, mice. The format is in vitro ADME. The following applies: Mice liver microsomes, 0.5 mg/mL, NADPH. Here is the method: as §3, §4, §5, §6, §7, §8, §9, §10, §11, §12, §2
1. […]

The structures appear in SMILES notation.

Chain of Ba/F3-L858R/T790M/C797S (P00533 whole entry T790M/C797S/L858R): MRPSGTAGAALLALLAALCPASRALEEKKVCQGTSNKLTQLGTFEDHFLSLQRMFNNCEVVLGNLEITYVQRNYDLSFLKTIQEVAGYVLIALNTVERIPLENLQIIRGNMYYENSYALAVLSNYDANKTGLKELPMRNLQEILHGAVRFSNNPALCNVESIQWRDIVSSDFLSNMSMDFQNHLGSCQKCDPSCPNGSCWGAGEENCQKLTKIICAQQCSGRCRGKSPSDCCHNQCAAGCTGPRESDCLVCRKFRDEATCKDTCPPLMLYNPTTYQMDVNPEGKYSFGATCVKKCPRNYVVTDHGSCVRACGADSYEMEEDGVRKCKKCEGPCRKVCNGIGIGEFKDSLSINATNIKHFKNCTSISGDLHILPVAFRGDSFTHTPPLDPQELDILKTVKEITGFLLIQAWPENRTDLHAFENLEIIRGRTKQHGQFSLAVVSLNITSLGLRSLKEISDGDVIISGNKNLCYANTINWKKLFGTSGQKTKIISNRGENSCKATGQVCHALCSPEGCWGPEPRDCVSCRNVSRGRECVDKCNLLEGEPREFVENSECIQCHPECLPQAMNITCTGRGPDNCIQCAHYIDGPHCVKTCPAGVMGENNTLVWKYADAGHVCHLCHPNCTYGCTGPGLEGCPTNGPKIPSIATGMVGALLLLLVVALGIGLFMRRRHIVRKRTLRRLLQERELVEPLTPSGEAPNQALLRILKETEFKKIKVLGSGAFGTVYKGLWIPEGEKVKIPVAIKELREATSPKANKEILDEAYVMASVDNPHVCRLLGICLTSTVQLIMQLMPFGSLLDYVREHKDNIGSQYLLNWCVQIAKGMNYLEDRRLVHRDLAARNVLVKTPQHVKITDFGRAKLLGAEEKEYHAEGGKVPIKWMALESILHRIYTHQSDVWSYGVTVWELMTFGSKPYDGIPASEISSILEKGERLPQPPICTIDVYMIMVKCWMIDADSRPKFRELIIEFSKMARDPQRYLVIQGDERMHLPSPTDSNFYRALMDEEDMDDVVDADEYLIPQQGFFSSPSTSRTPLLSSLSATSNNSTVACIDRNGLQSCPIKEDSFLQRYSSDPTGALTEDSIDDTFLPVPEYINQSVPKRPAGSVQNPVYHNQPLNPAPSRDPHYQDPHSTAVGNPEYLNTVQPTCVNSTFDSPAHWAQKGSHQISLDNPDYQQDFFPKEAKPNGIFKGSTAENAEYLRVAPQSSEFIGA
Chain of Ba/F3-Δ19del/T790M/C797S (P00533 with tags, fused parts or gaps DEL746-750/T790M/C797S, form open): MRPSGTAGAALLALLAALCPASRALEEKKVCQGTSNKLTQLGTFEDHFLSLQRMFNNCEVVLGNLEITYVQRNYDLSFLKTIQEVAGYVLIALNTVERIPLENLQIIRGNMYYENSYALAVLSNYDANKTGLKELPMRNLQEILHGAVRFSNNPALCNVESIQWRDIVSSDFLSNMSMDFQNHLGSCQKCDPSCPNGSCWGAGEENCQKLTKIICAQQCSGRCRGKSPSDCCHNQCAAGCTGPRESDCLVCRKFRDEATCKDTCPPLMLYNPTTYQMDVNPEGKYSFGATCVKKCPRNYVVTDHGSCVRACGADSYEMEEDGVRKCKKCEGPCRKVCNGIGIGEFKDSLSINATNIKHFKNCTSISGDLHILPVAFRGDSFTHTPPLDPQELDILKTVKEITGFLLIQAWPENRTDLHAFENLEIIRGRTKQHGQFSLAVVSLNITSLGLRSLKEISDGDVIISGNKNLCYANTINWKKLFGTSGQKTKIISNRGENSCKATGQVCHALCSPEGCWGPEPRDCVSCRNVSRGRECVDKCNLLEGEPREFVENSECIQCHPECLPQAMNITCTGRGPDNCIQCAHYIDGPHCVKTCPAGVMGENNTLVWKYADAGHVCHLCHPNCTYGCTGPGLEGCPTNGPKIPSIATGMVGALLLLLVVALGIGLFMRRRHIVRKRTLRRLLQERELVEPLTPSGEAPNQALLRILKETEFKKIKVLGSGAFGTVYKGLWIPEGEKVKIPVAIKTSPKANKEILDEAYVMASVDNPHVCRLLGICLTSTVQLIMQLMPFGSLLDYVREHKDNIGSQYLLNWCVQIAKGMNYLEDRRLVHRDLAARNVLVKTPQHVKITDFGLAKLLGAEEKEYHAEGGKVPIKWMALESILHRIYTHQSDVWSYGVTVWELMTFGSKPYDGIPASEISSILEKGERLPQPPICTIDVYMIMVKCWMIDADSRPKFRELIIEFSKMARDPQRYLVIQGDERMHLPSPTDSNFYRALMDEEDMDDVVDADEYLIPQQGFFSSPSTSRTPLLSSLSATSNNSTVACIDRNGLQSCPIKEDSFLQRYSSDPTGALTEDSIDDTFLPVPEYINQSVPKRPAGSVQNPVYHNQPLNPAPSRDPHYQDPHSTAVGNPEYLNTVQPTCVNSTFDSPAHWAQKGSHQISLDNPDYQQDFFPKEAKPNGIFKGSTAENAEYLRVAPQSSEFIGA

With `COc1cc(N2CCC(N3CCN(C)CC3)CC2)c(-c2cnn(C)c2)cc1Nc1ncc(Cl)c(Nc2ccc3nccnc3c2P(C)(C)=O)n1` [Compound 1, (6-((5-Chloro-2-((2-methoxy-5-(1-methyl-1hydro-pyrazol-4-yl)-4-(4-(4-methylpiperazine-1-yl)piperidin-1-yl)phenyl)amino)pyrimidin-4-yl)amino)quinoxalin-5-yl)dimethylphosphine oxide], the GI50 at Ba/F3-L858R/T790M/C797S and on Ba/F3-Δ19del/T790M/C797S was 2.1 nM each time. Moreover, in series [1], the IC50 (in general, the concentration that inhibits the measured activity by half) was 112 nM. For the same compound, the entries for the “Instrinsic clearance of liver microsomal protein, CLint” value in series [2], in series [3] and in series [4] were 38.8 μL/min/mg proteins, 4 μL/min/mg proteins and 6.6 μL/min/mg proteins, respectively.
